What is called IC50 is the midpoint of a concentration-inhibition curve. A high value points to a need for much substance.

For this assay, the system named is PDE4 enzyme of human origin. Put plainly: PDE4-inhibiting activity on an enzyme preparation obtained from the U937 cell line. It counts as biochemical. How it is done: In the case of the PDE4 enzymes, this value is compared with that of rolipram, a specific PDE4 inhibitor. […] Measurement of the enzyme activity of the different types of PDE, and especially of the PDE4 enzymes, is then carried out according to a method adapted from W. J. Thompson, ibidem.
Turning to `COC(=O)[C@H](CCCCN)NC(=O)c1ccc2c(=O)n(C3N=C(c4ccccc4)c4cc(C)cc5c4N(CC5)C3=O)c(C)nc2c1` (stereo partly drawn) [Example 9I, Methyl (2S)-6-amino-2-{[2-methyl-3-(9-methyl-4-oxo-1-phenyl-3,4,6,7-tetrahydro-[1,4]diazepino[6,7,1-hi]indol-3-yl)-4-oxo-3,4-dihydroquinazolin-7-carbonyl]amino}hexanoate], the midpoint of inhibition, the IC50, lay at 119 nM. For the compound `Cc1cc2c3c(c1)C(c1ccccc1)=NC(n1c(C)nc4cc(C(=O)OCCN5CCOCC5)ccc4c1=O)C(=O)N3CC2` (stereo not drawn) [Example 10, 2-(4-morpholinyl)ethyl 2-methyl-3-(9-methyl-4-oxo-1-phenyl-3,4,6,7-tetrahydro-[1,4]diazepino-[6,7,1-hi]indol-3-yl)-4-oxo-3,4-dihydroquinazoline-7-carboxylate], inhibition was half-maximal at 183 nM (IC50). `CC(=O)OCCOC(=O)c1ccc2c(=O)n(C3N=C(c4ccccc4)c4cc(C)cc5c4N(CC5)C3=O)c(C)nc2c1` (stereo not drawn) [Example 10A, 2-acetoxyethyl 2-methyl-3-(9-methyl-4-oxo-1-phenyl-3,4,6,7-tetrahydro[1,4]diazepino[6,7,1-hi]indol-3-yl)-4-oxo-3,4dihydroquinazoline-7-carboxylate]: it took 108 nM to reach half-maximal inhibition (IC50).

Turning to `COCCOC(=O)c1ccc2c(=O)n(C3N=C(c4ccccc4)c4cc(C)cc5c4N(CC5)C3=O)c(C)nc2c1` (stereo not drawn) [Example 10B, 2-Methoxyethyl 2-methyl-3-(9-methyl-4-oxo-1-phenyl-3,4,6,7-tetrahydro[1,4]diazepino[6,7,1-hi]indol-3-yl)-4-oxo-3,4-dihydroquinazoline-7-carboxylate], the IC50 amounted to 155 nM.

`Cc1cc2c3c(c1)C(c1ccccc1)=NC(n1c(C)nc4cc(C(=O)OCCO)ccc4c1=O)C(=O)N3CC2` (stereo not drawn) [Example 10C, 2-Hydroxyethyl 2-methyl-3-(9-methyl-4-oxo-1-phenyl-3,4,6,7-tetrahydro[1,4]diazepino[6,7,1-hi]indol-3-yl)-4-oxo-3,4-dihydroquinazoline-7-carboxylate] had a concentration for half-maximal inhibition (IC50) of 81 nM. Compound `Cc1cc2c3c(c1)C(c1ccccc1)=NC(n1c(C)nc4cc(C(=O)OC[C@@H](O)CO)ccc4c1=O)C(=O)N3CC2` (stereo partly drawn) [Example 10D, 1-(2S)-glyceryl 2-methyl-3-(9-methyl-4-oxo-1-phenyl-3,4,6,7-tetrahydro[1,4]diazepino[6,7,1-hi]indol-3-yl)-4-oxo-3,4-dihydroquinazoline-7-carboxylate] came in with an IC50 of 42 nM.

`Cc1cc2c3c(c1)C(c1ccccc1)=NC(n1c(C)nc4cc(C(=O)OCC(O)CN5CCOCC5)ccc4c1=O)C(=O)N3CC2` (stereo not drawn) [Example 10E, 2-hydroxy-3-morpholin-4-ylpropyl 2-methyl-3-(9-methyl-4-oxo-1-phenyl-3,4,6,7-tetrahydro[1,4]diazepino[6,7,1-hi]indol-3-yl)-4-oxo-3,4-dihydroquinazoline-7-carboxylate]: the 50% inhibitory concentration (IC50) is 75 nM. With `Cc1cc2c3c(c1)C(c1ccccc1)=NC(n1c(C)nc4cc(CO)ccc4c1=O)C(=O)N3CC2` (stereo not drawn) [Example 11, 3-(7-hydroxymethyl-2-methyl-4-oxo-4H-quinazolin-3-yl)-9-methyl-1-phenyl-6,7-dihydro-3H-[1,4]diazepino[6,7,1-hi]indol-4-one] the figure was 79 nM. In turn, `Cc1cc2c3c(c1)C(c1ccccc1)=N[C@@H](n1c(C)nc4cccc(F)c4c1=O)C(=O)N3CC2` [Example 12] returned an IC50 of 88 nM. Compound `Cc1cc2c3c(c1)C(c1ccccc1)=NC(n1c(C)nc4cccc(Cl)c4c1=O)C(=O)N3CC2` (stereo not drawn) [Example 13, 3-(5-chloro-2-methyl-4-oxo-4H-quinazolin-3-yl)-9-methyl-1-phenyl-6,7-dihydro-3H-[1,4]diazepino-[6,7,1-hi]indol-4-one] registered a half-maximal inhibitory concentration (IC50) of 83 nM. `CCOC(=O)c1nc2ccccc2c(=O)n1C1N=C(c2ccccc2)c2cc(C)cc3c2N(CC3)C1=O` (stereo not drawn) [Example 14, ethyl 3-(9-methyl-4-oxo-1-phenyl-3,4,6,7-tetrahydro-[1,4]diazepino[6,7,1-hi]indol-3-yl)-4-oxo-3,4-dihydroquinazoline-2-carboxylate] gave an IC50 of 310 nM. The compound `CCOC(=O)c1nc2cccc(Cl)c2c(=O)n1C1N=C(c2ccccc2)c2cc(C)cc3c2N(CC3)C1=O` (stereo not drawn) [Example 15, Ethyl 5-chloro-3-(9-methyl-4-oxo-1-phenyl-3,4,6,7-tetrahydro-[1,4]diazepino[6,7,1-hi]indol-3-yl)-4oxo-3,4-dihydroquinazoline-2-carboxylate] came in with an IC50 of 82 nM. With `CCOC(=O)Cc1nc2ccccc2c(=O)n1C1N=C(c2ccccc2)c2cc(C)cc3c2N(CC3)C1=O` (stereo not drawn) [Example 16, Ethyl [3-(9-methyl-4-oxo-1-phenyl-3,4,6,7-tetrahydro-[1,4]diazepino[6,7,1-hi]indol-3-yl)-4-oxo-3,4-dihydro-2-quinazolinyl]acetate], the midpoint of inhibition, the IC50, lay at 260 nM. Turning to `COCc1nc2ccccc2c(=O)n1C1N=C(c2ccccc2)c2cc(C)cc3c2N(CC3)C1=O` (stereo not drawn) [Example 17A, 9-Methyl-3-(2-methyloxymethyl-4-oxo-4H-quinazolin-3-yl)-1-phenyl-6,7-dihydro-3H-[1,4]diazepino[6,7,1-hi]indol-4-one], the 50% inhibitory concentration (IC50) was 137 nM. Consider `Cc1cc2c3c(c1)C(c1ccccc1)=NC(n1c(CO)nc4ccccc4c1=O)C(=O)N3CC2` (stereo not drawn) [Example 17B, 9-Methyl-3-(2-hydroxymethyl-4-oxo-4H-quinazolin-3-yl)-1-phenyl-6,7-dihydro-3H-[1,4]diazepino[6,7,1-hi]indol-4-one], for which the IC50 was determined as 221 nM. In turn, `Cc1cc2c3c(c1)C(c1ccccc1)=NC(n1c(COC(=O)CCC(=O)O)nc4ccccc4c1=O)C(=O)N3CC2` (stereo not drawn) [Example 17C, [3-(9-Methyl-4-oxo-1-phenyl-3,4,6,7-tetrahydro-[1,4]diazepino[6,7,1-hi]indol-3-yl)-4-oxo-3,4-dihydroquinazolin-2-yl]methyl hydrogen succinate] had an IC50 of 339 nM.

`COCCOCCOCC(=O)OCc1nc2ccccc2c(=O)n1C1N=C(c2ccccc2)c2cc(C)cc3c2N(CC3)C1=O` (stereo not drawn) [Example 17D, [3-(9-Methyl-4-oxo-1-phenyl-3,4,6,7-tetrahydro-[1,4]diazepino[6,7,1-hi]iondol-3-yl)-4-oxo-3,4-dihydroquinazolin-2-yl]methanol [2-(2-methoxyethoxy)ethoxy]acetate] had an IC50 of 286 nM. The result for `Cc1cc2c3c(c1)C(c1ccccc1)=NC(n1c(COC(=O)CCC(=O)NCCN4CCOCC4)nc4ccccc4c1=O)C(=O)N3CC2` (stereo not drawn) [Example 17E, 3-(9-Methyl-4-oxo-1-phenyl-3,4,6,7-tetrahydro-[1,4]diazepino [6,7,1-hi]indol-3-yl)-4-oxo-3,4-dihydroquinazolin-2-ylmethyl N-(2-morpholin-4-ylethyl)succinamate] reads 222 nM. `Cc1cc2c3c(c1)C(c1ccccc1)=NC(n1c(COC(=O)CCC(=O)OCCN4CCOCC4)nc4ccccc4c1=O)C(=O)N3CC2` (stereo not drawn) [Example 17F, 3-(9-Methyl-4-oxo-1-phenyl-3,4,6,7-tetrahydro-[1,4]diazepino[6,7,1-hi]indol-3-yl)-4-oxo-3,4-dihydroquinazolin-2-ylmethyl 2-morpholin-4-ylethyl succinnate] registered a 50% inhibitory concentration (IC50) of 147 nM. The result for `COC(=O)[C@H](CCCCNC(=O)OC(C)(C)C)NC(=O)CCC(=O)OCc1nc2ccccc2c(=O)n1C1N=C(c2ccccc2)c2cc(C)cc3c2N(CC3)C1=O` (stereo partly drawn) [Example 17G, Methyl 6-t-butoxycarbonylamino-2-{3-[3-(9-methyl-4-oxo-1-phenyl-3,4,6,7-tetrahydro-[1,4]diazepino[6,7,1-hi]indol-3-yl)-4-oxo-3,4-dihydroquinazolin-2-ylmethoxycarbonyl]propionylamino}hexanoate] reads 516 nM; that for `CCOC(=O)CCc1nc2ccccc2c(=O)n1C1N=C(c2ccccc2)c2cc(C)cc3c2N(CC3)C1=O` (stereo not drawn) [Example 17H, Ethyl 3-[3-(9-methyl 4oxo-1-phenyl-3,4,6,7-tetrahydro[1,4]diazepino[6,7,1-hi]indol-3-yl)-4-oxo-3,4-dihydroquinazolin-2-yl]propanoate], 184 nM. `Cc1cc2c3c(c1)C(c1ccccc1)=NC(n1cnc4ccccc4c1=O)C(=O)N3CC2` (stereo not drawn) [Example 18, 3(9-Methyl-3-oxo-4H-quinazolin-3-yl)-1-phenyl-6,7-dihydro-3H-[1,4]diazepino[6,7,1-hi]indol-4one] came in with an IC50 of 823 nM. Regarding `Cc1cc2c3c(c1)C(c1ccccc1)=N[C@@H](n1c(C)nc4cnccc4c1=O)C(=O)N3CC2` [Example 19, (3S)-3-(2-Methyl-4-oxo-4H-pyrido[3,4-d]-pyrimidin-3-yl)-9-methyl-1-phenyl-6,7-dihydro-3H-[1,4]diazepino[6,7,1-hi]indol-1-one], the 50% inhibitory concentration (IC50) amounted to 193 nM. As for `Cc1ccc2nc(C)n(C3N=C(c4ccccc4)c4cc([N+](=O)[O-])cc5c4N(CC5)C3=O)c(=O)c2c1` (stereo not drawn) [Example 22, 3-(2,6-Dimethyl-4-oxo-4H-quinazolin-3-yl)-9-nitro-1-phenyl-6,7-dihydro-3H-[1,4]diazepino-[6,7,1-hi]indol-4-one], inhibition was half-maximal at 1730 nM (IC50). For the compound `Cc1ccc2c(=O)n(C3N=C(c4ccccc4)c4cc([N+](=O)[O-])cc5c4N(CC5)C3=O)c(C)nc2c1` (stereo not drawn) [Example 23, 3-(2,7-Dimethyl-4-oxo-4H-quinazolin-3-yl)-9-nitro-1-phenyl-6,7-dihydro-3H-[1,4]diazepino-[6,7,1-hi]indol-4-one], half-maximal inhibition (IC50) required 497 nM. Regarding `Cc1cccc2c(=O)n(C3N=C(c4ccccc4)c4cc([N+](=O)[O-])cc5c4N(CC5)C3=O)c(C)nc12` (stereo not drawn) [Example 24, 3-(2,8-Dimethyl-4-oxo-4H-quinazolin-3-yl)-9-nitro-1-phenyl-6,7-dihydro-3H-[1,4]diazepino-[6,7,1-hi]indol-4-one], inhibition was half-maximal at 30600 nM (IC50). `Cc1cc(C)c2nc(C)n(C3N=C(c4ccccc4)c4cc([N+](=O)[O-])cc5c4N(CC5)C3=O)c(=O)c2c1` (stereo not drawn) [Example 25, 3(2,6,8-Trimethyl-4-oxo-4H-quinazolin-3-yl)-9-nitro-1-phenyl-6,7-dihydro-3H-[1,4]diazepino[6,7,1-hi]indol-4-one] showed an IC50 of over 100000 nM.

These data come from US6239130A, “Phosphodiesterase 4-inhibiting diazepinoindolones” (Warner-Lambert Company, priority 1997, dated 2001).
